Assay results from ChEMBL document CHEMBL3885861, “Open TG-GATES”.

Species on record: Rattus norvegicus
Assay: Open TG-GATES - Regimen: Daily Repeat
Assay type: toxicity, organism-based, Sprague-Dawley
Parameters: regimen Daily Repeat, gender Male, age 6 weeks
Settings: in vivo, po, route gavage; for Eos / Fbg / Hb / Ht / Lym / MCH / MCHC / MCV / Mono / PT / Plat / RBC / Ret / WBC / APTT / Bas: tissue Blood; for KIDNEY_L / KIDNEY_R / KIDNEY_TOTAL: tissue Kidney
[1] = 60 mg/kg, 72 h, dose level Middle, time 3 day
[2] = 60 mg/kg, 72 h, tissue Plasma, dose level Middle, time 3 day
[3] = 60 mg/kg, […], dose level Middle, time 7 day
[4] = 60 mg/kg, […], dose level Middle, time 14 day
[5] = 60 mg/kg, […], dose level Middle, time 28 day
[6] = 60 mg/kg, […], tissue Plasma, dose level Middle, time 7 day
[7] = 60 mg/kg, […], tissue Plasma, dose level Middle, time 14 day
[8] = 60 mg/kg, […], tissue Plasma, dose level Middle, time 28 day
[9] = 200 mg/kg, 72 h, dose level High, time 3 day

Compound `CC(C)Cc1ccc(C(C)C(=O)O)cc1` (configuration not stated) [IBUPROFEN] has an Eos [1] of 0.8%, a Fbg [1] of 340.8 mg/dL and a Hb [1] of 13.2 g/dL. The Ht [1] was 39%, the Lym [1] was 73.8% and the MCH [1] was 21 pg. The MCHC [1] was 33.9%, the MCV [1] was 61.9 fL and the Mono [1] was 2.6%. It also gave a PT [1] of 16 s, a Plat [1] of 115.2 x10_4/uL and an RBC [1] of 629.8 x10_4/ul. The Ret [1] was 6.7%, the WBC [1] was 115.1 x10_2/uL and the KIDNEY_L [1] was 0.9 g. It also gave a KIDNEY_R [1] of 1 g, a KIDNEY_TOTAL [1] of 1.9 g and an ALP [2] of 1603.6 IU/L. It also gave an ALT [2] of 45 IU/L, an AST [2] of 80.4 IU/L and a BUN [2] of 17.8 mg/dL. The CRE [2] was 0.2 mg/dL, the DBIL [2] was 0 mg/dL and the GLC [2] was 184.6 mg/dL. The IP [2] was 7.2 mg/dL, the K [2] was 4.4 meq/L and the LDH [2] was 237 IU/L. It also gave a Na [2] of 141.4 meq/L, a PL [2] of 138.4 mg/dL and an RALB [2] of 2.9 g/dL. It also gave a TBIL [2] of 0.002 mg/dL, a TC [2] of 73.4 mg/dL and a TG [2] of 130.8 mg/dL. It also gave a TP [2] of 5.4 g/dL, a gamma-GTP [2] of 1.4 IU/L and a TERMINAL_BW [3] of 253.3 g. For the same compound, the TERMINAL_BW [4] was 297.5 g, the TERMINAL_BW [5] was 379.8 g and the APTT [3] was 20.6 s. It also gave a Bas [3] of 0%, an Eos [3] of 1% and a Fbg [3] of 313.2 mg/dL. The Hb [3] was 12.9 g/dL, the Ht [3] was 37.4% and the Lym [3] was 68.6%. For the same compound, the MCH [3] was 21.3 pg, the MCHC [3] was 34.4% and the MCV [3] was 62 fL. For the same compound, the Mono [3] was 3%, the PT [3] was 15.8 s and the Plat [3] was 132.1 x10_4/uL. For the same compound, the RBC [3] was 605 x10_4/ul, the Ret [3] was 8.2% and the WBC [3] was 133.5 x10_2/uL. For the same compound, the APTT [4] was 23.6 s, the Bas [4] was 0% and the Eos [4] was 1%. The Fbg [4] was 326.2 mg/dL, the Ht [4] was 41% and the Lym [4] was 75.8%. It also gave an MCHC [4] of 33.9%, an MCV [4] of 61.4 fL and a Mono [4] of 2.8%. For the same compound, the PT [4] was 16.1 s, the RBC [4] was 670.4 x10_4/ul and the Ret [4] was 5.7%. The WBC [4] was 126.7 x10_2/uL, the APTT [5] was 24.2 s and the Bas [5] was 0%. It also gave an Eos [5] of 1.8%, a Fbg [5] of 333 mg/dL and a Hb [5] of 14.8 g/dL. It also gave a Ht [5] of 43.5%, a Lym [5] of 75.2% and an MCH [5] of 19 pg. For the same compound, the MCHC [5] was 34%, the MCV [5] was 56 fL and the Mono [5] was 1.8%. For the same compound, the Plat [5] was 102 x10_4/uL, the RBC [5] was 777.2 x10_4/ul and the Ret [5] was 2.8%. For the same compound, the WBC [5] was 93.9 x10_2/uL, the KIDNEY_L [3] was 1.1 g and the KIDNEY_R [3] was 1.1 g. For the same compound, the KIDNEY_TOTAL [3] was 2.1 g, the KIDNEY_L [4] was 1.2 g and the KIDNEY_R [4] was 1.2 g. It also gave a KIDNEY_TOTAL [4] of 2.4 g, a KIDNEY_L [5] of 1.3 g and a KIDNEY_R [5] of 1.4 g. The KIDNEY_TOTAL [5] was 2.7 g, the ALP [6] was 1376 IU/L and the ALT [6] was 44.2 IU/L. It also gave an AST [6] of 78 IU/L, a BUN [6] of 18.6 mg/dL and a CRE [6] of 0.2 mg/dL. It also gave a DBIL [6] of 0 mg/dL, a GLC [6] of 188.4 mg/dL and an IP [6] of 7.3 mg/dL. It also gave a K [6] of 4 meq/L, an LDH [6] of 187.6 IU/L and a Na [6] of 139.2 meq/L. For the same compound, the PL [6] was 154.4 mg/dL, the RALB [6] was 3 g/dL and the TBIL [6] was 0.004 mg/dL. For the same compound, the TC [6] was 75.6 mg/dL, the TG [6] was 136.4 mg/dL and the TP [6] was 5.4 g/dL. It also gave a gamma-GTP [6] of 2.4 IU/L, an ALP [7] of 1198.6 IU/L and an ALT [7] of 41.2 IU/L. It also gave an AST [7] of 69.2 IU/L, a CRE [7] of 0.2 mg/dL and a DBIL [7] of 0 mg/dL. It also gave a GLC [7] of 189.4 mg/dL, an IP [7] of 8.1 mg/dL and a K [7] of 4.1 meq/L. The LDH [7] was 147.6 IU/L, the Na [7] was 141 meq/L and the PL [7] was 154 mg/dL. For the same compound, the RALB [7] was 3 g/dL, the TBIL [7] was 0.004 mg/dL and the TC [7] was 76.6 mg/dL. It also gave a TG [7] of 139 mg/dL, a TP [7] of 5.6 g/dL and a gamma-GTP [7] of 2.2 IU/L. For the same compound, the ALP [8] was 1187.4 IU/L, the ALT [8] was 40.8 IU/L and the AST [8] was 67.8 IU/L. For the same compound, the BUN [8] was 20 mg/dL, the CRE [8] was 0.2 mg/dL and the Ca [8] was 10.4 mg/dL. It also gave a DBIL [8] of 0 mg/dL, a GLC [8] of 186.2 mg/dL and an IP [8] of 6.7 mg/dL. The K [8] was 3.9 meq/L, the LDH [8] was 150.6 IU/L and the Na [8] was 142.4 meq/L. It also gave a PL [8] of 147 mg/dL, an RALB [8] of 3.2 g/dL and a TBIL [8] of 0.002 mg/dL. For the same compound, the TC [8] was 71.8 mg/dL, the TG [8] was 139 mg/dL and the TP [8] was 6 g/dL. It also gave a gamma-GTP [8] of 2.6 IU/L, a TERMINAL_BW [9] of 206.3 g and an APTT [9] of 19.6 s.
